Measured values as given in patent US10376520B2, “Methods for the treatment of cardiovascular disorders” (Galapagos NV, priority 2015, dated 2019).

System: RA patients
Assay: Total cholesterol determination, Study 1 (RA patients with inadequate response to methotrexate, add-on to MTX)
Type: in vivo, human
Conditions: for [Total cholesterol] Median CFB / [total cholesterol] Mean CFB: Study 1 12 weeks results
Experimental: Double-blind, placebo-controlled add on study in subjects with moderately to severely active RA who have an inadequate response to methotrexate (MTX) (oral or parenteral).
595 subjects randomized to one of 6 dose regimens of Compound 1 (dosed as a [Compound 1:HCl:3H2O]) (3 dose levels administered either once or twice daily) or placebo on top of each subject's stable dose of MTX.
Compound 1 (dosed as a [Compound 1:HCl:3H2O]) is dosed for twelve weeks once daily (q.d.) (50 mg, 100 mg or 200 mg) or twice daily (b.i.d.) (25 mg, 50 mg or 100 mg); or placebo.
At Week 12, the subjects on placebo who have not achieved 20% improvement in swollen joint count (SJC66) and tender joint count (TJC68) are re-randomized automatically to receive Compound 1 (dosed as a [Compound 1:HCl:3H2O]) either at 100 mg q.d. or 50 mg b.i.d. doses in a blinded fashion; subjects on 50 mg q.d. who have not achieved 20% improvement in SJC66 and TJC68 will be assigned to 100 mg q.d. and subjects on 25 mg b.i.d. that have not achieved a 20% improvement in SJC66 and TJC68 will be assigned to 50 mg b.i.d. Subjects who switch treatment at week 12 are handled as if they discontinued at week 12 for the purpose of statistical analysis, whereas subjects in the other groups will maintain their randomized treatment until Week 24.
This method is based on the determination of Δ^4 cholestenone after enzymatic cleavage of the cholesterol ester by cholesterol esterase, conversion of cholesterol by cholesterol oxidase, and subsequent measurement by the Trinder reaction of the hydrogen peroxide formed (Allain et al., 1974).
Cholesterol esters are cleaved by the action of cholesterol esterase to yield free cholesterol and fatty acids. Cholesterol oxidase then catalyzes the oxidation of cholesterol to cholest-4-en-3-one and hydrogen peroxide. In the presence of peroxidase, the hydrogen peroxide formed effects the oxidative coupling of phenol and 4-aminophenazone to form a red quinone-imine dye. The color intensity of the dye formed is directly proportional to the cholesterol concentration. It is determined by measuring the increase in absorbance.
Human serum and plasma samples cholesterol determination was done on a Roche/Hitachi Cobas c 701/702 system which automatically calculate the analyte concentration of each sample.

## O=C(Nc1nc2cccc(-c3ccc(CN4CCS(=O)(=O)CC4)cc3)n2n1)C1CC1 [Compound 1, cyclopropanecarboxylic acid {5-[4-(1,1-dioxo-thiomorpholin-4-ylmethyl)-phenyl]-[1,2,4]triazolo[1,5-a]pyridin-2yl}-amide]
50 mg q.d. (N = 82), week 1
  [total cholesterol] Mean percentage CFB - 12 weeks results: 1%
50 mg q.d. (N = 82), week 2
  [total cholesterol] Mean percentage CFB - 12 weeks results: 1%
50 mg q.d. (N = 82), week 4
  [total cholesterol] Mean percentage CFB - 12 weeks results: 1%
50 mg q.d. (N = 82), week 8
  [total cholesterol] Mean percentage CFB - 12 weeks results: 3%
50 mg q.d. (N = 82), week 12
  [total cholesterol] Mean percentage CFB - 12 weeks results: 5%
100 mg q.d. (N = 85), week 1
  [total cholesterol] Mean percentage CFB - 12 weeks results: 4%
100 mg q.d. (N = 85), week 2
  [total cholesterol] Mean percentage CFB - 12 weeks results: 2%
100 mg q.d. (N = 85), week 4
  [total cholesterol] Mean percentage CFB - 12 weeks results: 5%
100 mg q.d. (N = 85), week 8
  [total cholesterol] Mean percentage CFB - 12 weeks results: 4%
100 mg q.d. (N = 85), week 12
  [total cholesterol] Mean percentage CFB - 12 weeks results: 5%
200 mg q.d. (N = 86), week 1
  [total cholesterol] Mean percentage CFB - 12 weeks results: 6%
200 mg q.d. (N = 86), week 2
  [total cholesterol] Mean percentage CFB - 12 weeks results: 7%
200 mg q.d. (N = 86), week 4
  [total cholesterol] Mean percentage CFB - 12 weeks results: 8%
200 mg q.d. (N = 86), week 8
  [total cholesterol] Mean percentage CFB - 12 weeks results: 10%
200 mg q.d. (N = 86), week 12
  [total cholesterol] Mean percentage CFB - 12 weeks results: 10%
2 x 25 mg b.i.d. (N = 86), week 1
  [total cholesterol] Mean percentage CFB - 12 weeks results: 2%
2 x 25 mg b.i.d. (N = 86), week 2
  [total cholesterol] Mean percentage CFB - 12 weeks results: 3%
2 x 25 mg b.i.d. (N = 86), week 4
  [total cholesterol] Mean percentage CFB - 12 weeks results: 3%
2 x 25 mg b.i.d. (N = 86), week 8
  [total cholesterol] Mean percentage CFB - 12 weeks results: 3%
2 x 25 mg b.i.d. (N = 86), week 12
  [total cholesterol] Mean percentage CFB - 12 weeks results: 5%
2 x 50 mg b.i.d. (N = 85), week 1
  [total cholesterol] Mean percentage CFB - 12 weeks results: 3%
2 x 50 mg b.i.d. (N = 85), week 2
  [total cholesterol] Mean percentage CFB - 12 weeks results: 4%
2 x 50 mg b.i.d. (N = 85), week 4
  [total cholesterol] Mean percentage CFB - 12 weeks results: 7%
2 x 50 mg b.i.d. (N = 85), week 8
  [total cholesterol] Mean percentage CFB - 12 weeks results: 6%
2 x 50 mg b.i.d. (N = 85), week 12
  [total cholesterol] Mean percentage CFB - 12 weeks results: 6%
2 x 100 mg b.i.d. (N = 84), week 1
  [total cholesterol] Mean percentage CFB - 12 weeks results: 7%
2 x 100 mg b.i.d. (N = 84), week 2
  [total cholesterol] Mean percentage CFB - 12 weeks results: 8%
2 x 100 mg b.i.d. (N = 84), week 4
  [total cholesterol] Mean percentage CFB - 12 weeks results: 10%
2 x 100 mg b.i.d. (N = 84), week 8
  [total cholesterol] Mean percentage CFB - 12 weeks results: 15%
2 x 100 mg b.i.d. (N = 84), week 12
  [total cholesterol] Mean percentage CFB - 12 weeks results: 15%
50 mg q.d., week 1
  [Total cholesterol] Median CFB: 0.05 mmol/L
  [total cholesterol] Mean CFB: 0.0 mmol/L
50 mg q.d., week 2
  [Total cholesterol] Median CFB: 0.04 mmol/L
  [total cholesterol] Mean CFB: 0.1 mmol/L
50 mg q.d., week 4
  [Total cholesterol] Median CFB: 0.06 mmol/L
  [total cholesterol] Mean CFB: 0.1 mmol/L
50 mg q.d., week 8
  [Total cholesterol] Median CFB: 0.16 mmol/L
  [total cholesterol] Mean CFB: 0.1 mmol/L
50 mg q.d., week 12
  [Total cholesterol] Median CFB: 0.20 mmol/L
  [total cholesterol] Mean CFB: 0.2 mmol/L
100 mg q.d., week 1
  [Total cholesterol] Median CFB: 0.14 mmol/L
  [total cholesterol] Mean CFB: 0.2 mmol/L
100 mg q.d., week 2
  [Total cholesterol] Median CFB: 0.07 mmol/L
  [total cholesterol] Mean CFB: 0.1 mmol/L
100 mg q.d., week 4
  [Total cholesterol] Median CFB: 0.25 mmol/L
  [total cholesterol] Mean CFB: 0.2 mmol/L
100 mg q.d., week 8
  [Total cholesterol] Median CFB: 0.09 mmol/L
  [total cholesterol] Mean CFB: 0.1 mmol/L
100 mg q.d., week 12
  [Total cholesterol] Median CFB: 0.30 mmol/L
  [total cholesterol] Mean CFB: 0.2 mmol/L
200 mg q.d., week 1
  [Total cholesterol] Median CFB: 0.25 mmol/L
  [total cholesterol] Mean CFB: 0.3 mmol/L
200 mg q.d., week 2
  [Total cholesterol] Median CFB: 0.34 mmol/L
  [total cholesterol] Mean CFB: 0.3 mmol/L
200 mg q.d., week 4
  [Total cholesterol] Median CFB: 0.33 mmol/L
  [total cholesterol] Mean CFB: 0.4 mmol/L
200 mg q.d., week 8
  [Total cholesterol] Median CFB: 0.54 mmol/L
  [total cholesterol] Mean CFB: 0.4 mmol/L
200 mg q.d., week 12
  [Total cholesterol] Median CFB: 0.26 mmol/L
  [total cholesterol] Mean CFB: 0.5 mmol/L
2 x 25 mg b.i.d., week 1
  [Total cholesterol] Median CFB: 0.12 mmol/L
